Measured values: publication PMC13230610, “Fast analysis and engineering of protein function by microbe-independent deep assembly and screening” (Molecular Systems Biology, 2026)

Legend:
[1] = test system: T1, ACh-NeuBI0.5 (engineered OpuBC fused with SmBiT/LgBiT and mScarlet-I); assay: bioluminescence dose-response of indicator expressed on HEK293A cells; format: cell-based, Homo sapiens (HEK293A cells)
T1 construct: mScarlet-I at N-terminus of OpuBC (30-106)-linker 1 (Phe)-SmBiT (∆C3)-LgBiT-OpuBC (107-305)

[2] = test system: T2, ACh-NeuBI1b (ACh-NeuBI0.5 QAE; engineered OpuBC fused with SmBiT/LgBiT and mScarlet-I); assay: bioluminescence dose-response in HEK293A cells; also purified protein responded; format: cell-based, Homo sapiens (HEK293A cells)
T2 construct: ACh-NeuBI0.5 QAE

| Compound | Kd [1] | Kd [2] |
| --- | --- | --- |
| CC(=O)OCC[N+](C)(C)C [acetylcholine] | 898 µM | 188 µM |
| C[N+](C)(C)CCO [choline] | 11000 µM |  |
